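Five compound concentrations were applied to cells in 96-well plates for 48 hours; endpoints were derived by simple linear interpolation of the resulting dose-response curve. TGI: concentration producing complete growth inhibition.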
Tests used:
Test in all cases: growth of human tumour cells (NCI), 48 h
SW-620 colon = system: SW-620 colon
786-0 renal = system: 786-0 renal
NCI-H226 lung = system: NCI-H226 lung
OVCAR-3 ovarian = system: OVCAR-3 ovarian
COLO 205 colon = system: COLO 205 colon
A549 NSCLC = system: A549 NSCLC
OVCAR-4 ovarian = system: OVCAR-4 ovarian
MALME-3M melanoma = system: MALME-3M melanoma
SK-MEL-2 melanoma = system: SK-MEL-2 melanoma
UACC-257 melanoma = system: UACC-257 melanoma
MDA-N = system: MDA-N
HL-60(TB) leukemia = system: HL-60(TB) leukemia
HCT-15 colon = system: HCT-15 colon
IGROV1 ovarian = system: IGROV1 ovarian
SK-OV-3 ovarian = system: SK-OV-3 ovarian
NCI-H23 lung = system: NCI-H23 lung
LOX IMVI melanoma = system: LOX IMVI melanoma
HCT-116 colon = system: HCT-116 colon
MOLT-4 leukemia = system: MOLT-4 leukemia
T-47D breast = system: T-47D breast
MDA-MB-231 breast = system: MDA-MB-231 breast
OVCAR-5 ovarian = system: OVCAR-5 ovarian
OVCAR-8 ovarian = system: OVCAR-8 ovarian
NCI-H460 lung = system: NCI-H460 lung
CCRF-CEM leukemia = system: CCRF-CEM leukemia
ACHN renal = system: ACHN renal
SK-MEL-28 melanoma = system: SK-MEL-28 melanoma
CAKI-1 renal = system: CAKI-1 renal
M14 melanoma = system: M14 melanoma
SNB-19 CNS = system: SNB-19 CNS
TK-10 renal = system: TK-10 renal
HOP-92 NSCLC = system: HOP-92 NSCLC
SF-539 CNS = system: SF-539 CNS
SF-295 CNS = system: SF-295 CNS
NCI/ADR-RES ovarian = system: NCI/ADR-RES ovarian
RXF 393 renal = system: RXF 393 renal
DU-145 prostate = system: DU-145 prostate
KM12 colon = system: KM12 colon
MDA-MB-435 = system: MDA-MB-435
SN12C renal = system: SN12C renal
HS 578T breast = system: HS 578T breast
EKVX NSCLC = system: EKVX NSCLC
U251 CNS = system: U251 CNS
RPMI-8226 leukemia = system: RPMI-8226 leukemia
SNB-75 CNS = system: SNB-75 CNS
UO-31 renal = system: UO-31 renal
K-562 leukemia = system: K-562 leukemia
HT29 colon = system: HT29 colon
SK-MEL-5 melanoma = system: SK-MEL-5 melanoma
NCI-H522 lung = system: NCI-H522 lung
HOP-62 NSCLC = system: HOP-62 NSCLC
BT-549 breast = system: BT-549 breast
PC-3 prostate = system: PC-3 prostate
SF-268 CNS = system: SF-268 CNS
SR leukemia = system: SR leukemia
MCF7 breast = system: MCF7 breast
A498 renal = system: A498 renal

For `O=C(c1cccnc1)N1N=C(c2ccc(Cl)cc2)CC1(O)c1cc(F)c(Cl)cc1Cl` (stereo not given), the TGI (SW-620 colon) was > 100 µM, the TGI (786-0 renal) was 53.8 µM and the TGI (NCI-H226 lung) was 43.3 µM. The TGI (OVCAR-3 ovarian) was 26.9 µM, the TGI (COLO 205 colon) was 28.7 µM and the TGI (A549 NSCLC) was > 100 µM. For the same molecule, the TGI (OVCAR-4 ovarian) was > 100 µM, the TGI (MALME-3M melanoma) was > 100 µM and the TGI (SK-MEL-2 melanoma) was 75.2 µM. The TGI (UACC-257 melanoma) was 63.7 µM, the TGI (MDA-N) was > 100 µM and the TGI (HL-60(TB) leukemia) was 47.9 µM. The TGI (HCT-15 colon) was > 100 µM, the TGI (IGROV1 ovarian) was 82.1 µM and the TGI (SK-OV-3 ovarian) was > 100 µM. For the same molecule, the TGI (NCI-H23 lung) was > 100 µM, the TGI (LOX IMVI melanoma) was 31.2 µM and the TGI (HCT-116 colon) was 52.8 µM. The TGI (MOLT-4 leukemia) was > 100 µM, the TGI (T-47D breast) was 20.7 µM and the TGI (MDA-MB-231 breast) was 38.9 µM. The TGI (OVCAR-5 ovarian) was > 100 µM, the TGI (OVCAR-8 ovarian) was > 100 µM and the TGI (NCI-H460 lung) was > 100 µM. The TGI (CCRF-CEM leukemia) was > 100 µM, the TGI (ACHN renal) was 53.8 µM and the TGI (SK-MEL-28 melanoma) was 91.7 µM. For the same molecule, the TGI (CAKI-1 renal) was > 100 µM, the TGI (M14 melanoma) was 91.9 µM and the TGI (SNB-19 CNS) was > 100 µM. The TGI (TK-10 renal) was > 100 µM, the TGI (HOP-92 NSCLC) was 59.8 µM and the TGI (SF-539 CNS) was 28.1 µM. The TGI (SF-295 CNS) was 56.1 µM, the TGI (NCI/ADR-RES ovarian) was > 100 µM and the TGI (RXF 393 renal) was 26.7 µM. For the same molecule, the TGI (DU-145 prostate) was > 100 µM, the TGI (KM12 colon) was > 100 µM and the TGI (MDA-MB-435) was > 100 µM. For the same molecule, the TGI (SN12C renal) was 37.5 µM, the TGI (HS 578T breast) was > 100 µM and the TGI (EKVX NSCLC) was 76.5 µM. The TGI (U251 CNS) was 34.3 µM, the TGI (RPMI-8226 leukemia) was 47.6 µM and the TGI (SNB-75 CNS) was 37.3 µM. For the same molecule, the TGI (UO-31 renal) was > 100 µM, the TGI (K-562 leukemia) was > 100 µM and the TGI (HT29 colon) was 75.8 µM. The TGI (SK-MEL-5 melanoma) was 24.2 µM, the TGI (NCI-H522 lung) was 92.1 µM and the TGI (HOP-62 NSCLC) was 91.3 µM. For the same molecule, the TGI (BT-549 breast) was 69.1 µM, the TGI (PC-3 prostate) was 43.4 µM and the TGI (SF-268 CNS) was 75 µM. The TGI (SR leukemia) was > 100 µM.

Molecule `c1ccc(/N=N/Nc2ccc(-c3nc4ccccc4[nH]3)cc2)nc1` has a TGI (SW-620 colon) of 71.5 µM, a TGI (786-0 renal) of 27.5 µM and a TGI (NCI-H226 lung) of 65.4 µM. The TGI (OVCAR-3 ovarian) was 28.2 µM, the TGI (COLO 205 colon) was > 100 µM and the TGI (A549 NSCLC) was 36.4 µM. It also gave a TGI (OVCAR-4 ovarian) of 35.8 µM, a TGI (MALME-3M melanoma) of 29.2 µM and a TGI (SK-MEL-2 melanoma) of 62.5 µM. For the same molecule, the TGI (UACC-257 melanoma) was 62.6 µM, the TGI (MDA-N) was 34.7 µM and the TGI (HL-60(TB) leukemia) was > 100 µM. The TGI (HCT-15 colon) was 69.9 µM, the TGI (IGROV1 ovarian) was 28 µM and the TGI (SK-OV-3 ovarian) was 27.9 µM. For the same molecule, the TGI (NCI-H23 lung) was 95.8 µM, the TGI (LOX IMVI melanoma) was 43.7 µM and the TGI (HCT-116 colon) was 19.7 µM. It also gave a TGI (MOLT-4 leukemia) of 25.4 µM, a TGI (T-47D breast) of 26 µM and a TGI (MDA-MB-231 breast) of 25.1 µM. It also gave a TGI (OVCAR-5 ovarian) of 84.1 µM, a TGI (OVCAR-8 ovarian) of 47.2 µM and a TGI (NCI-H460 lung) of 31.6 µM. It also gave a TGI (CCRF-CEM leukemia) of 9.79 µM, a TGI (ACHN renal) of 34.2 µM and a TGI (SK-MEL-28 melanoma) of 38.7 µM. For the same molecule, the TGI (CAKI-1 renal) was 61.3 µM, the TGI (M14 melanoma) was > 100 µM and the TGI (SNB-19 CNS) was 44 µM. For the same molecule, the TGI (TK-10 renal) was 35.6 µM, the TGI (HOP-92 NSCLC) was 40.5 µM and the TGI (SF-539 CNS) was 31.3 µM. The TGI (SF-295 CNS) was 35.9 µM, the TGI (NCI/ADR-RES ovarian) was > 100 µM and the TGI (RXF 393 renal) was 32.5 µM. It also gave a TGI (DU-145 prostate) of 27.7 µM, a TGI (KM12 colon) of 30.7 µM and a TGI (MDA-MB-435) of 45.7 µM. It also gave a TGI (SN12C renal) of 35.8 µM, a TGI (HS 578T breast) of 43 µM and a TGI (EKVX NSCLC) of 52.8 µM. For the same molecule, the TGI (U251 CNS) was 30.1 µM, the TGI (RPMI-8226 leukemia) was 11.6 µM and the TGI (SNB-75 CNS) was 40.5 µM. The TGI (UO-31 renal) was 49.3 µM, the TGI (K-562 leukemia) was 31.8 µM and the TGI (HT29 colon) was 45.2 µM. The TGI (SK-MEL-5 melanoma) was > 100 µM, the TGI (NCI-H522 lung) was 33.9 µM and the TGI (HOP-62 NSCLC) was 30.2 µM. The TGI (MCF7 breast) was 23.4 µM, the TGI (BT-549 breast) was > 100 µM and the TGI (PC-3 prostate) was 47.2 µM. The TGI (A498 renal) was > 100 µM.

Source: PubChem BioAssay (NCI)
